Experimental data: ChEMBL document CHEMBL5608163, “Structure modification of anoplin for fighting resistant bacteria” (Eur J Med Chem, 2024)
Values after ≈ are worked out from the molar mass of the structure shown. Square brackets hold non-standard residues; d marks the D form. Peptide text beside a SMILES is read from it. * marks the point of attachment. NMeR = CN[C@@H](CCCNC(=N)N)C(=O)O; Undecanoyl = CCCCCCCCCCC(=O)*; NMeK = CN[C@@H](CCCCN)C(=O)O; Nonanoyl = CCCCCCCCC(=O)*

Columns and labels:
Pseudomonas aeruginosa [1] = test: Antibacterial activity against Pseudomonas aeruginosa PAO1 assessed as bacterial growth inhibition; assay type: functional
[2] = Hemolytic activity in human erythrocytes measured after 1 hrs by microplate reader analysis; assay type: toxicity, cell-based, Erythrocyte
Bacillus subtilis [3] = test: Antibacterial activity against Bacillus subtilis assessed as bacterial growth inhibition; assay type: functional
Escherichia coli [4] = test: Antibacterial activity against Escherichia coli DH5a assessed as bacterial growth inhibition; assay type: functional
[5] = test system: Mycolicibacterium smegmatis; test: Antibacterial activity against Mycobacterium smegmatis mc2 155 assessed as bacterial growth inhibition; assay type: functional
Zymomonas mobilis [6] = test: Antibacterial activity against Zymomonas mobilis ATCC 10988 assessed as bacterial growth inhibition; assay type: functional
[7] = Hemolytic activity in human RBC assessed as hemolysis; assay type: toxicity, cell-based, Erythrocyte; conditions: red blood cells
Staphylococcus aureus [8] = test: Antibacterial activity against Staphylococcus aureus ATCC 25923 assessed as reduction in bacterial growth incubated for 24 hrs by serial dilution method; assay type: functional
Escherichia coli [9] = test: Antibacterial activity against Escherichia coli ATCC 25922 assessed as bacterial growth inhibition measured after 48 hrs by resazurin assay; assay type: functional
Bacillus subtilis [10] = test: Antimicrobial activity against Bacillus subtilis assessed as microbial growth inhibition incubated for 24 hrs by broth micro-dilution method; assay type: functional
[11] = Hemolytic activity against human Red blood cells assessed as cell lysis; assay type: toxicity, cell-based, Erythrocyte
[12] = test system: Mycolicibacterium smegmatis; test: Antimycobacterial activity against Mycobacterium smegmatis mc2 155 assessed as reduction in bacterial cell growth incubated for 24 hrs by resazurin dye based broth microdilution method; assay type: functional
Escherichia coli [13] = test: Antibacterial acitivity against Escherichia coli DH5a assessed as bacterial growth inhibition incubated for 24 hrs by broth micro-dilution method; assay type: functional
Zymomonas mobilis [14] = test: Antibacterial activity against Zymomonas mobilis ATCC 10988 assessed as reduction in bacterial growth incubated for 24 hrs by broth micro-dilution method; assay type: functional
Pseudomonas aeruginosa [15] = test: Antibacterial activity against Pseudomonas aeruginosa ATCC 27853 assessed as reduction in bacterial cell growth measured for 18 hrs by Mueller-Hinton broth based two-fold serial dilution method; assay type: functional
[16] = Hemolytic activity in mouse erythrocyte incubated for 1 hr by microplate reader analysis; assay type: toxicity, cell-based; conditions: erythrocytes
[17] = Hemolytic activity in mouse Red blood cells incubated for 1 hr by microplate reader assay; assay type: toxicity, cell-based, Erythrocyte; conditions: red blood cells
Bacillus subtilis [18] = test: Antibacterial activity against Bacillus subtilis ATCC 23857 assessed as reduction in bacterial cell growth measured for 18 hrs by Mueller-Hinton broth based two-fold serial dilution method; assay type: functional
Klebsiella pneumoniae = test: Antibacterial activity against Klebsiella pneumoniae ATCC 700603 assessed as reduction in bacterial cell growth measured for 18 hrs by Mueller-Hinton broth based two-fold serial dilution method; assay type: functional
Staphylococcus aureus [19] = test: Antibacterial activity against Staphylococcus aureus ATCC 25923 assessed as reduction in bacterial cell growth measured for 18 hrs by Mueller-Hinton broth based two-fold serial dilution method; assay type: functional
Escherichia coli [20] = test: Antibacterial activity against Escherichia coli ATCC 25922 assessed as reduction in bacterial cell growth measured for 18 hrs by Mueller-Hinton broth based two-fold serial dilution method; assay type: functional

Row | SMILES | HC50 [7] [µM] | MIC (Staphylococcus aureus [8]) [µM] | MIC (Escherichia coli [9]) [µM] | MIC (Pseudomonas aeruginosa [15]) [µM] | HC50 at 1 h [16] [µM] | HC50 at 1 h [17] [µM] | MIC (Bacillus subtilis [18]) [µM] | MIC (Klebsiella pneumoniae) [µM] | MIC (Staphylococcus aureus [19]) [µM] | MIC (Escherichia coli [20]) [µM] | other results
1 | CCCCCCCCC(=O)NCC(=O)N[C@@H](CC(C)C)C(=O)N[C@@H](CCCCN)C(=O)N[C@@H](CCCCN)C(=O)N[C@H](C(=O)N[C@H](C(=O)N[C@@H](CCCCN)C(=O)N[C@@H](CCCCN)C(=O)N[C@@H](CC(C)C)C(=O)N[C@@H](CC(C)C)C(N)=O)[C@@H](C)CC)[C@@H](C)CC (Nonanoyl-GLKKIIKKLL-NH2) |  |  |  |  |  |  |  |  |  |  | MIC (Pseudomonas aeruginosa [1]): 11.5 µM (≈ 14.8 µg/mL); HC50 at 1 h [2]: 61.9 µM; MIC (Bacillus subtilis [3]): 3.83 µM (≈ 4.95 µg/mL); MIC (Escherichia coli [4]): 76.6 µM (≈ 99 µg/mL); MIC [5]: 2.3 µM (≈ 2.97 µg/mL); MIC (Zymomonas mobilis [6]): 11.5 µM (≈ 14.8 µg/mL)
2 | CC[C@H](C)[C@H](NC(=O)[C@H](CCCCN)NC(=O)[C@@H](NC(=O)[C@H](CCCNC(=N)N)NC(=O)[C@H](CCCCN)NC(=O)[C@H](CC(C)C)NC(=O)[C@H](CC(C)C)NC(=O)CN)[C@@H](C)CC)C(=O)N[C@@H](CC(C)C)C(=O)N[C@@H](CC(C)C)C(N)=O (H-GLLKRIKILL-NH2) | 81.8 | 12 (≈ 14 µg/mL) | 7.7 (≈ 8.97 µg/mL) |  |  |  |  |  |  |  | 
3 | CC[C@H](C)[C@H](NC(=O)[C@H](CCCNC(=N)N)NC(=O)[C@H](CCCCN)NC(=O)[C@H](CC(C)C)NC(=O)[C@H](CC(C)C)NC(=O)CN)C(=O)N[C@@H](CCCCN)C(=O)N[C@@H](Cc1ccccc1)C(=O)N[C@@H](CC(C)C)C(=O)N[C@@H](CC(C)C)C(N)=O (H-GLLKRIKFLL-NH2) | 326 | 6.7 (≈ 8.04 µg/mL) | 6.7 (≈ 8.04 µg/mL) |  |  |  |  |  |  |  | 
4 | CC[C@H](C)[C@H](NC(=O)[C@H](Cc1ccccc1)NC(=O)[C@H](CCCCN)NC(=O)[C@H](CC(C)C)NC(=O)[C@H](CC(C)C)NC(=O)[C@@H](N)CCCCN)C(=O)N[C@@H](CCCCN)C(=O)N[C@@H](CCCCN)C(=O)N[C@@H](CC(C)C)C(=O)N[C@@H](CC(C)C)C(N)=O (H-KLLKFIKKLL-NH2) |  |  |  |  |  |  |  |  |  |  | MIC (Bacillus subtilis [10]): 35.6 µM (≈ 44.2 µg/mL); HC50 [11]: > 403 µM; MIC [12]: 13.3 µM (≈ 16.5 µg/mL); MIC (Escherichia coli [13]): 322 µM (≈ 400 µg/mL); MIC (Zymomonas mobilis [14]): 8.9 µM (≈ 11.1 µg/mL)
5 | CCCCCCCCCCC(=O)NCC(=O)N[C@@H](CC(C)C)C(=O)N[C@@H](CC(C)C)C(=O)N[C@@H](CCCCN)C(=O)N[C@@H](CCCCN)C(=O)N[C@H](C(=O)N[C@@H](CCCCN)C(=O)N[C@@H](CCCNC(=N)N)C(=O)N[C@@H](CC(C)C)C(=O)N[C@@H](CC(C)C)C(N)=O)[C@@H](C)CC (Undecanoyl-GLLKKIKRLL-NH2) |  |  |  |  |  |  |  |  |  |  | MIC (Pseudomonas aeruginosa [1]): 2.58 µM (≈ 3.48 µg/mL); HC50 at 1 h [2]: 38 µM; MIC (Bacillus subtilis [3]): 86.2 µM (≈ 116 µg/mL); MIC (Escherichia coli [4]): 34.4 µM (≈ 46.3 µg/mL); MIC [5]: 86.2 µM (≈ 116 µg/mL); MIC (Zymomonas mobilis [6]): 4.3 µM (≈ 5.8 µg/mL)
6 | CCCCCCCCCCC(=O)NCC(=O)N[C@@H](CC(C)C)C(=O)N[C@@H](CC(C)C)C(=O)N[C@@H](CCCCN)C(=O)N(C)[C@@H](CCCNC(=N)N)C(=O)N[C@H](C(=O)N(C)[C@@H](CCCCN)C(=O)N[C@H](C(=O)N[C@@H](CC(C)C)C(=O)N[C@@H](CC(C)C)C(N)=O)[C@@H](C)O)[C@@H](C)CC (Undecanoyl-GLLK[NMeR]I[NMeK]TLL-NH2) |  |  |  | 8 (≈ 10.8 µg/mL) | > 256 | > 256 | 8 (≈ 10.8 µg/mL) | 128 (≈ 173 µg/mL) | 32 (≈ 43.2 µg/mL) | 16 (≈ 21.6 µg/mL) | 
7 | CC[C@H](C)[C@H](NC(=O)[C@H](Cc1ccccc1)NC(=O)[C@H](CCCCN)NC(=O)[C@H](CC(C)C)NC(=O)[C@H](CC(C)C)NC(=O)[C@@H](N)CCCNC(=N)N)C(=O)N[C@@H](CCCCN)C(=O)N[C@@H](CCCCN)C(=O)N[C@@H](CC(C)C)C(=O)N[C@@H](CC(C)C)C(N)=O (H-RLLKFIKKLL-NH2) |  |  |  |  |  |  |  |  |  |  | MIC (Bacillus subtilis [10]): 31.5 µM (≈ 40 µg/mL); HC50 [11]: > 394 µM; MIC [12]: 15.8 µM (≈ 20.1 µg/mL); MIC (Escherichia coli [13]): 315 µM (≈ 400 µg/mL); MIC (Zymomonas mobilis [14]): 7.9 µM (≈ 10 µg/mL)
8 | CCCCCCCCCCC(=O)NCC(=O)N[C@@H](CC(C)C)C(=O)N[C@@H](CC(C)C)C(=O)N(C)[C@@H](CCCCN)C(=O)N[C@@H](CCCNC(=N)N)C(=O)N[C@H](C(=O)N(C)[C@@H](CCCCN)C(=O)N[C@H](C(=O)N[C@@H](CC(C)C)C(=O)N[C@@H](CC(C)C)C(N)=O)[C@@H](C)O)[C@@H](C)CC (Undecanoyl-GLL[NMeK]RI[NMeK]TLL-NH2) |  |  |  | 8 (≈ 10.8 µg/mL) | > 256 | > 256 | 4 (≈ 5.4 µg/mL) | > 128 | 32 (≈ 43.2 µg/mL) | 32 (≈ 43.2 µg/mL) | 
9 | CC[C@H](C)[C@H](NC(=O)[C@H](CCCNC(=N)N)NC(=O)[C@H](CCCCN)NC(=O)[C@H](CC(C)C)NC(=O)[C@H](CC(C)C)NC(=O)CN)C(=O)N[C@@H](CCCCN)C(=O)N[C@@H](CC(C)C)C(=O)N[C@@H](CC(C)C)C(=O)N[C@@H](CC(C)C)C(N)=O (H-GLLKRIKLLL-NH2) | 102 | 6 (≈ 6.99 µg/mL) | 11.2 (≈ 13.1 µg/mL) |  |  |  |  |  |  |  | 
10 | CCCCCCCCC(=O)NCC(=O)N[C@@H](CC(C)C)C(=O)N[C@@H](CC(C)C)C(=O)N[C@@H](CCCCN)C(=O)N(C)[C@@H](CCCNC(=N)N)C(=O)N[C@H](C(=O)N(C)[C@@H](CCCCN)C(=O)N[C@H](C(=O)N[C@@H](CC(C)C)C(=O)N[C@@H](CC(C)C)C(N)=O)[C@@H](C)O)[C@@H](C)CC (Nonanoyl-GLLK[NMeR]I[NMeK]TLL-NH2) |  |  |  | 32 (≈ 42.3 µg/mL) | > 256 | > 256 | 8 (≈ 10.6 µg/mL) | > 128 | 128 (≈ 169 µg/mL) | 128 (≈ 169 µg/mL) | 
